Measurements published in patent EP0516157A1, “Preparation of 6-0-alkylelsamicin A derivatives” (priority 1991, dated 1992).
Like-named read-outs stand apart in the source and are kept apart here.

Columns and labels:
[1] = system: lymphocytic leukemia P388; experiment: In vivo antitumor activity against P388 leukemia in mice; conditions: for T/C % of MST: P388, female CDF1 mice, Q1Dx3 ip; for anti-P388 activity compared with elsamicin A / toxicity compared with elsamicin A: P388 system, in words
Description: (§1) In vivo antitumor activity of the above fifteen derivatives was tested in the lymphocytic leukemia P388 and melanoma B16 systems. Female CDF₁ (for P388) and male BDF₁ (for B16) mice were inoculated by ip injection at 10⁶ P388 cells and 0.5 ml of a 10% B16 brei per mouse, respectively (day 0). […] The percent increase of median survival time (MST) of treated animals over that of untreated control animals was determined and reported as T/C %. Compounds showing T/C % values of 125 or greater are considered to have significant antitumor activity.

[2] = system: murine melanoma B16-F10 cells; experiment: In vitro cytotoxicity, neutral red staining after 72 hours; conditions: for Cytotoxicity IC50: 72 hours incubation
Description: (§2) For in vitro cytotoxicity experiment, murine melanoma B16-F10 cells were grown and maintained in Eagle's minimum essential medium (Nissui), which contains kanamycin (60 µg/ml), supplemented with heat-inactivated fetal calf serum (10%) and nonessential amino acids (0.6%) at 37°C under a humidified atmosphere in a 5% CO₂ incubator. Exponentially growing B16-F10 cells were harvested, counted and suspended in the culture medium at the concentration of 2.0x10⁴ cells/ml. The cell suspension (180 µl) was planted into wells of a 96-well microtiter plate and incubated for 24 hours. Test compounds (20 µl) were added to the wells and the plates were further incubated for 72 hours. The cytotoxic activity was colorimetrically determined at 540 nm after staining viable cells with neutral red solution.

melanoma B16 = experiment: In vivo antitumor activity against B16 melanoma in mice; conditions: for No. of survivors/tested on day 50 / T/C % of MST: Q4Dx3 ip; for T/C % of MST: B16, male BDF1 mice
Description: as §1

[3] = system: murine melanoma B16-F10 cells
Description: as §2

| SMILES | T/C % of MST ([1]; 0.1 mg/kg/day) | T/C % of MST ([1]; 0.3 mg/kg/day) | T/C % of MST ([1]; 1 mg/kg/day) | T/C % of MST ([1]; 3 mg/kg/day) | T/C % of MST ([1]; 10 mg/kg/day) | Cytotoxicity IC50 [2] | T/C % of MST ([1]; 20 mg/kg/day) | T/C % of MST ([1]; 40 mg/kg/day) | anti-P388 activity compared with elsamicin A [1] | toxicity compared with elsamicin A [1] | No. of survivors/tested on day 50 (melanoma B16; B16, 10 mg/kg/day) | T/C % of MST (melanoma B16; 0.1 mg/kg/day) | T/C % of MST (melanoma B16; 0.3 mg/kg/day) | T/C % of MST (melanoma B16; 1 mg/kg/day) | T/C % of MST (melanoma B16; 3 mg/kg/day) | T/C % of MST (melanoma B16; 10 mg/kg/day) | chemotherapeutic activity in the B16 system (melanoma B16; B16 system, in words) | cytotoxicity compared with the parent compound ([2]; in words, versus elsamicin A) | cytotoxicity compared with the parent compound [3] | No. of survivors/tested on day 50 (melanoma B16; B16, 3 mg/kg/day) |
| --- | --- | --- | --- | --- | --- | --- | --- | --- | --- | --- | --- | --- | --- | --- | --- | --- | --- | --- | --- | --- |
| COC1C(N)C(OC2C(Oc3cccc4c(OC(C)C)c5c(=O)oc6ccc(C)c7c(=O)oc(c34)c5c67)OC(C)C(O)C2(C)O)OC(C)C1O (centres unmarked) [Compound 7d, 6-O-Isopropylelsamicin A] | 95% | 119% | 124% | 133% | 148% | 0.49 µg/mL | – | – | – | – | – | – | – | – | – | – | – | – | – | – |
| COC1C(N)C(OC2C(Oc3cccc4c(OCCCN5C(=O)c6ccccc6C5=O)c5c(=O)oc6ccc(C)c7c(=O)oc(c34)c5c67)OC(C)C(O)C2(C)O)OC(C)C1O (centres unmarked) [Compound 7h, 6-O-(3-phthalimidopropyl)elsamicin A] | 105% | 105% | 120% | 125% | 140% | 0.71 µg/mL | – | – | – | – | – | – | – | – | – | – | – | – | – | – |
| COC1C(N)C(OC2C(Oc3cccc4c(OCCCN)c5c(=O)oc6ccc(C)c7c(=O)oc(c34)c5c67)OC(C)C3OC(C)(C)OC32C)OC(C)C1O (centres unmarked) [Compound 8i, 6-O-(3-Aminopropyl)-3',4'-isopropylideneelsamicin A] | – | 105% | 110% | 120% | 135% | 1.8 µg/mL | – | – | – | – | – | – | – | – | – | – | – | – | – | – |
| COC1C(N)C(OC2C(Oc3cccc4c(OCCCN5C(=O)c6ccccc6C5=O)c5c(=O)oc6ccc(C)c7c(=O)oc(c34)c5c67)OC(C)C3OC(C)(C)OC32C)OC(C)C1O (centres unmarked) [Compound 8h, 3'4'-O-Isopropylidene-6-O-(3-phthalimidopropyl)elsamicin A] | 100% | 110% | 110% | 120% | 130% | 0.4 µg/mL | – | – | – | – | – | – | – | – | – | – | – | – | – | – |
| CCOc1c2cccc(OC3OC(C)C(O)C(C)(O)C3OC3OC(C)C(O)C(OC)C3N)c2c2oc(=O)c3c(C)ccc4oc(=O)c1c2c43 (centres unmarked) [Compound 7b, 6-O-Ethylelsamicin A] | 110% | 125% | 130% | 150% | 170% | 0.06 µg/mL | 170% | 180% | as active as elsamicin A | seemed to be less toxic | (3/4) | 103% | 113% | 144% | 178% | ≧313% | excellent chemotherapeutic activity | approximately equipotent cytotoxicity to the parent compound | – | – |
| COc1c2cccc(OC3OC(C)C(O)C(C)(O)C3OC3OC(C)C(O)C(OC)C3N)c2c2oc(=O)c3c(C)ccc4oc(=O)c1c2c43 (centres unmarked) [Compound 7a, 6-O-Methylelsamicin A] | – | – | – | – | – | 0.19 µg/mL | – | – | – | – | – | – | – | – | – | – | – | – | – | – |
| CCCCCCCCCCOc1c2cccc(OC3OC(C)C4OC(C)(C)OC4(C)C3OC3OC(C)C(O)C(OC)C3N)c2c2oc(=O)c3c(C)ccc4oc(=O)c1c2c43 (centres unmarked) [Compound 8g, 6-O-n-Decyl-3'4'-O-isopropylideneelsamicin A] | – | 115% | 105% | 115% | 100% | 2.9 µg/mL | – | – | – | – | – | – | – | – | – | – | – | – | – | – |
| CCCCCCOc1c2cccc(OC3OC(C)C(O)C(C)(O)C3OC3OC(C)C(O)C(OC)C3N)c2c2oc(=O)c3c(C)ccc4oc(=O)c1c2c43 (centres unmarked) [Compound 7f, 6-O-n-Hexylelsamicin A] | 100% | 105% | 120% | 130% | 140% | 0.11 µg/mL | – | – | – | – | – | 107% | 111% | 129% | 132% | 146% | – | – | – | – |
| CCCCOc1c2cccc(OC3OC(C)C(O)C(C)(O)C3OC3OC(C)C(O)C(OC)C3N)c2c2oc(=O)c3c(C)ccc4oc(=O)c1c2c43 (centres unmarked) [Compound 7e, 6-O-n-Butylelsamicin A] | 110% | 124% | 133% | 152% | 162% | 0.03 µg/mL | 141% | 164% | as active as elsamicin A | seemed to be less toxic | – | – | 123% | 127% | 160% | 213% | – | – | approximately equipotent cytotoxicity to the parent compound | – |
| CCCCCCCCCCOc1c2cccc(OC3OC(C)C(O)C(C)(O)C3OC3OC(C)C(O)C(OC)C3N)c2c2oc(=O)c3c(C)ccc4oc(=O)c1c2c43 (centres unmarked) [Compound 7g, 6-O-n-Decylelsamicin A] | – | 115% | 105% | 115% | 100% | 2.5 µg/mL | – | – | – | – | – | – | 107% | 126% | 153% | 183% | – | – | – | – |
| CCCOc1c2cccc(OC3OC(C)C(O)C(C)(O)C3OC3OC(C)C(O)C(OC)C3N)c2c2oc(=O)c3c(C)ccc4oc(=O)c1c2c43 (centres unmarked) [Compound 7c, 6-O-n-Propylelsamicin A] | 105% | 129% | 133% | 152% | 152% | 0.03 µg/mL | 155% | 159% | as active as elsamicin A | seemed to be less toxic | – | – | – | – | – | – | – | – | approximately equipotent cytotoxicity to the parent compound | – |
| CCCCCCOc1c2cccc(OC3OC(C)C4OC(C)(C)OC4(C)C3OC3OC(C)C(O)C(OC)C3N)c2c2oc(=O)c3c(C)ccc4oc(=O)c1c2c43 (centres unmarked) [Compound 8f, 6-O-n-Hexyl-3'4'-O-isopropylideneelsamicin A] | 110% | 110% | 110% | 115% | 120% | 0.9 µg/mL | – | – | – | – | – | – | – | – | – | – | – | – | – | – |
| COC1C(N)C(OC2C(Oc3cccc4c(O)c5c(=O)oc6ccc(C)c7c(=O)oc(c34)c5c67)OC(C)C(O)C2(C)O)OC(C)C1O (centres unmarked) [Elsamicin A (1), Elsamicin A] | 124% | 138% | 155% | 180% | 206% | 0.05 µg/mL | Tox | – | – | – | 9/24 | 120% | 139% | 178% | ≥ 216% | ≥ 305% | – | – | – | 2/24 |
| CCOc1c2cccc(OC3OC(C)C4OC(C)(C)OC4(C)C3OC3OC(C)C(O)C(OC)C3N)c2c2oc(=O)c3c(C)ccc4oc(=O)c1c2c43 (centres unmarked) [Compound 8b, 6-O-Ethyl-3'4'-O-isopropylideneelsamicin A] | 110% | 125% | 125% | 140% | 190% | 0.06 µg/mL | 200% | – | as active as elsamicin A | seemed to be less toxic | – | 97% | 106% | 119% | 153% | 216% | – | – | approximately equipotent cytotoxicity to the parent compound | – |
| COC1C(N)C(OC2C(Oc3cccc4c(OCCCN)c5c(=O)oc6ccc(C)c7c(=O)oc(c34)c5c67)OC(C)C(O)C2(C)O)OC(C)C1O (centres unmarked) [Compound 7i, 6-O-(3-Aminopropyl)elsamicin A] | – | 105% | 110% | 110% | 130% | 2.3 µg/mL | – | – | – | – | – | – | – | – | – | – | – | – | – | – |
| COc1c2cccc(OC3OC(C)C4OC(C)(C)OC4(C)C3OC3OC(C)C(O)C(OC)C3N)c2c2oc(=O)c3c(C)ccc4oc(=O)c1c2c43 (centres unmarked) [Compound 8a, 3',4'-O-Isopropylidene-6-O-methylelsamicin A] | – | – | – | – | – | 0.08 µg/mL | – | – | – | – | – | – | – | – | – | – | – | – | – | – |
